The nature of series [1]: in vitro. The conditions noted are these: African green monkey (Cercopithecus aethiops).
The subject of series [2] is Vero cells. The conditions noted are these: African green monkey (Cercopithecus aethiops).
Series [3] deals with SARS-CoV-2. Description: microbe, parasite or virus in culture. In kind it is cell-based.
Series [4] relates to SARS-CoV-2. In kind it is cell-based.
Series [5] concerns Vero cells. Also on record: method as in Yang et al. The conditions noted are these: 72 h condition without hypoxia, ref Yang et al.; cited from earlier work.
Details of series [6]: method as in Liu et al. The conditions noted are these: ref Liu et al.; cited from earlier work.
The conditions of series [7]: toxicological studies in animals; cited from earlier work.
Series [8] relates to SARS-CoV-2 Mpro. The conditions noted are these: cited from earlier work.

SMILES strings stand for the structures. pIC50: −log10 of the molar value. Where two headings read alike, the source gives them in different places.

Consider `COc1ccccc1OCCCOc1ccc([N+](=O)[O-])cc1Cl` [MolPort-002-201-288], for which the CC50 in series [1] was determined as 20.6 µM. In addition, in series [2], the CC20 turned out to be 3.031 µM.

On to `CN(CCCCCc1cc(-c2cccc(F)c2)n[nH]1)C(=O)C(C)(C)C` [MolPort-009-093-282], for which the CC50 in series [1] was found to be 47.1 µM. In series [2], this compound returned a CC20 of 9.418 µM.

With `CCS(=O)(=O)N(C)c1ccc2sc(C(=O)NCCC3=CCCCC3)cc2c1` [MolPort-010-778-422], the “SI (selectivity index)” value in series [3] is listed as 569.9. For the same compound, the pIC50 in series [3] (Severe acute respiratory syndrome coronavirus 2, Vero, 2 h) is 8.05. The CC50 at 72 h in series [1] came out at 5.07 µM. This compound also displayed a CC20 in series [2] (72 h) of 2.258 µM. In addition, the “log reduction (viral titer)” value in series [4] was found to be 5.6 log.

In turn, `C=CCNC(=O)c1csc(-c2ccc(OCCC)cc2F)n1` [MolPort-006-606-981] came in with a CC50 in series [1] of 19.4 µM. The compound further had a CC20 in series [2] of 3.964 µM.

For `CCN(CCO)CCCC(C)Nc1ccnc2cc(Cl)ccc12` (stereo not shown) [hydroxychloroquine], the CC50 in series [5] was 56.2 µM; in series [6] it was 250 µM. For the same compound, the “less toxic than chloroquine” value in series [7] is reported as “approximately 40%”.

Regarding `Cc1cccc(C)c1NC(=O)CCCSCc1cccc(S(=O)(=O)N(C)C)c1` [MolPort-005-766-143], the CC50 at 72 h in series [1] was 15.7 µM. In addition, the CC20 in series [2] (72 h) is 3.532 µM.

The compound `CC(=O)c1[nH]c(C)c(C(=O)N(C)CCCOc2cccc(Cl)c2)c1C` [MolPort-046-186-743] displayed a CC50 at 72 h in series [1] of 27.6 µM. Moreover, the CC20 in series [2] (72 h) was found to be 7.583 µM.

On to `CCOc1ccc2nc(C(=O)CCC(=O)OC(CCl)CCl)sc2c1` [MolPort-004-953-083], for which the CC50 at 72 h in series [1] came to 45.5 µM. In addition, the CC20 in series [2] (72 h) came out at 29.30 µM.

For the compound `CCN(CC)CCCC(C)Nc1ccnc2cc(Cl)ccc12` (stereo not shown) [chloroquine], the values for the CC50 in series [5] and in series [6] were 92.4 µM and 273 µM, respectively.

As for `O=C[C@H](C[C@@H]1CCNC1=O)NC(=O)[C@H](Cc1cccc(F)c1)NC(=O)c1cc2ccccc2[nH]1` [11b], the pIC50 in series [8] is 7.40.

`COc1cccc(SCC(=O)N(Cc2ccccn2)C2CCCCC2)c1` [MolPort-045-920-671]: in series [1], the CC50 at 72 h amounted to 16.1 µM. In series [2] (72 h), the CC20 was 2.772 µM.
